The text below walks through data of patent publication US20180186755A1, “LYSYL OXIDASE-LIKE 2 INHIBITORS AND USES THEREOF” (PharmAkea, Inc., priority 2015, published 2018).

pIC50: −log10 of the molar value.

One assay addresses T1, human LOXL2 (Homo sapiens, UniProt Q9Y4K0).
T1 construct: expressed in transfected cells; 10-20x concentrated conditioned media used as the enzyme source
T1 sequence (Q9Y4K0 26-774): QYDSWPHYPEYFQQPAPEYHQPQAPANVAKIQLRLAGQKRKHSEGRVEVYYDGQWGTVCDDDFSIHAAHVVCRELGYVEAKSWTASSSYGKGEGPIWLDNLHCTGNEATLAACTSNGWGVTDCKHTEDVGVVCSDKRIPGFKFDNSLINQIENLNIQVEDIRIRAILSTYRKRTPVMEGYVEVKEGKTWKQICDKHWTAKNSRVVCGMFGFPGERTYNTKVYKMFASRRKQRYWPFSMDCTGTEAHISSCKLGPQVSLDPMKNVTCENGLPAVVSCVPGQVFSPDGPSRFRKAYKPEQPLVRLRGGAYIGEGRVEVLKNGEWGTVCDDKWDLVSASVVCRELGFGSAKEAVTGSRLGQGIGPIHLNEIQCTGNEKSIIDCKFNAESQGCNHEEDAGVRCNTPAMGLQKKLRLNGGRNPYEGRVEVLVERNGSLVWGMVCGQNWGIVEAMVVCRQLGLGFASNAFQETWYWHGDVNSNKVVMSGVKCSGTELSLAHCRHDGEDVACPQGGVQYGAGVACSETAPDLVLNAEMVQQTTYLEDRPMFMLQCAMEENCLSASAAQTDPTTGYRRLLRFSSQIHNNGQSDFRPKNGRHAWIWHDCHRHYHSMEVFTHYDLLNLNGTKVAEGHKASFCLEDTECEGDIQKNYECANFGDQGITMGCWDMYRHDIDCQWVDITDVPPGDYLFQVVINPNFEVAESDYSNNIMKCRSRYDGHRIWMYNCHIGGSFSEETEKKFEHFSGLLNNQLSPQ
The experiment in a line: Human LOXL2 amine oxidase activity assay (Amplex Red fluorescence). Format: biochemical. The conditions noted are these: concentrated conditioned media from CHO cells stably expressing human LOXL2; 2 h at 37° C. preincubation; DAP substrate. The procedure, abridged:
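Enzyme source: 10-20× concentrated conditioned media from CHO cells stably expressing human LOXL2, preincubated with compound for 2 h at 37° C in 50 mM borate pH 8. Reaction started with 1,5-diaminopentane plus Amplex Red/HRP; fluorescence (ex 544/em 590) read kinetically for 1 hour, activity from linear slope.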

Assay [1] deals with bleomycin-induced lung fibrosis in C57Bl/6 male mice. The experiment in a line: Mouse oropharyngeal bleomycin model of lung fibrosis. Type of assay: in vivo. The conditions noted are these: dosed prophylactically at 60 mg/kg p.o. The protocol:
Example B-3: Mouse Oropharyngeal Bleomycin Model of Lung Fibrosis
Lung fibrosis is induced in C57Bl/6 male mice by administering bleomycin (0.1-4 U/kg) via oropharyngeal instillation. Mice are either pretreated with vehicle or test compound (1 day to 1 hour) orally, intraperitoneally, intravenously or subcutaneously before bleomycin installation (prophylactic dosing) or 7-14 days post bleomycin instillation (therapeutic dosing). The route and frequency of dosing are based on previously determined pharmacokinetic properties for the LOXL2 inhibitor in mouse. After bleomycin instillation animals are monitored daily for weight loss and clinical signs for 14-28 days prior to sacrifice. […] For histological examination, lung slices are stained with Masson's trichrome or Picro-Sirius red to measure cross-linked collagen as an indicator of fibrosis and an Ashcroft score of lung fibrotic and inflammatory damage determined. In addition, immunohistochemistry of fibrotic proteins such as a-smooth muscle actin can be recorded. […] After the acid hydrolysis, 25-100 μl of the supernatant is dried down, resuspended in 25 μl water and the hydroxyproline content determined by the addition of 0.5 ml Chloramine T solution (140 mg Chloramine T in 6.5 ml ddH20+1 ml n-propanol+2.5 ml 1M sodium acetate) and incubation at room temperature for 20 min. […]

For the molecule `NCc1cc(Oc2cccc(C(=O)N3CCN(c4ccccc4)CC3)c2)ncn1` [Compound 1-72, (3-((6-(Aminomethyl)pyrimidin-4-yl)oxy)phenyl)(4-phenylpiperazin-1-yl)methanone], the pIC50 (in general, −log10 of the IC50, conventionally taken in molar units) against human LOXL2 was more than 7.00. Further, in assay [1], the “efficacy in mouse oropharyngeal bleomycin model of lung fibrosis” value was “efficacious”.
As to `Cn1c(CNC(=O)c2cccc(Oc3cc(CN)ncn3)c2)cc2ccccc21` [Compound 1-66, 3-((6-(Aminomethyl)pyrimidin-4-yl)oxy)-N-((1-methyl-1H-indol-2-yl)methyl)benzamide], the pIC50 against human LOXL2 was more than 7.00.
The molecule `NCc1cc(Oc2cccc(C(=O)N3CCN(c4ccccn4)CC3)c2)ncn1` [Compound 1-58, (3-((6-(Aminomethyl)pyrimidin-4-yl)oxy)phenyl)(4-(pyridin-2-yl)piperazin-1-yl)methanone] had a pIC50 against human LOXL2 of more than 7.00.
`COC(=O)c1cccc(Cn2ccc3c(Oc4cc(CN)ncn4)cccc32)c1` [Compound 1-27, Methyl 3-((4-((6-(aminomethyl)pyrimidin-4-yl)oxy)-1H-indol-1-yl)methyl)benzoate] showed a pIC50 against human LOXL2 of more than 7.00.
As for `Cn1c(CNC(=O)c2cccc(COc3cc(CN)ncn3)c2)cc2ccccc21` [Compound 1-86, 3-(((6-(Aminomethyl)pyrimidin-4-yl)oxy)methyl)-N-((1-methyl-1H-indol-2-yl)methyl)benzamide], the pIC50 against human LOXL2 is more than 7.00.
Molecule `Cl.NCc1cc(Oc2cccc(C(=O)NCc3ccnc(Cl)c3)c2)ncn1` [Compound 1-55, 3-((6-(Aminomethyl)pyrimidin-4-yl)oxy)-N-((2-chloropyridin-4-yl)methyl)benzamide] showed a pIC50 at human LOXL2 of more than 7.00. In assay [1], the “efficacy in mouse oropharyngeal bleomycin model of lung fibrosis” value is reported as “efficacious”.
On human LOXL2, `NCc1cc(Oc2cccc(C(=O)NCc3cc4cccnc4[nH]3)c2)ncn1` [Compound 1-67, N-((1H-Pyrrolo[2,3-b]pyridin-2-yl)methyl)-3-((6-(aminomethyl)pyrimidin-4-yl)oxy)benzamide] showed a pIC50 of more than 7.00.
On to `Cc1n[nH]c2c1CN(C(=O)c1cccc(COc3cc(CN)ncn3)c1)CC2` [Compound 1-89, (3-(((6-(Aminomethyl)pyrimidin-4-yl)oxy)methyl)phenyl)(3-methyl-6,7-dihydro-1H-pyrazolo[4,3-c]pyridin-5(4H)-yl)methanone], for which the pIC50 against human LOXL2 is more than 7.00.
